From PubChem BioAssay AID330 (DTP/NCI, 2004)
Values joined by “and” are separate entries in the source; they are usually repeats but may differ in a detail not shown here. Equal entries are not always repeated. Toxic doses and inconclusive results are not listed. Rule for the calls: active = survival T/C of 150% or more; inactive = T/C below 125% in these data.

System: P388 leukemia ip, CD2F1 mice, survival T/C
Test: NCI In Vivo Anticancer Drug Screen. Data for tumor model P388 Leukemia (intraperitoneal) in CD2F1 (CDF1) mice
Conditions: endpoint: median survival time, higher = longer survival
Procedure, shortened: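 Mice carrying the transplanted tumor received test compound or vehicle. Survival was recorded in each group, and the value is the treated-group measurement divided by that of the vehicle-treated control group.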

[1] = dose: 50.0 mg/kg/injection, schedule: Q01DX005 (ip), vehicle: saline with Tween-80
[2] = dose: 100.0 mg/kg/injection, schedule: Q01DX005 (ip), vehicle: saline with Tween-80
[3] = dose: 100.0 mg/kg/injection, schedule: Q04DX003 (ip), vehicle: Klucel (hydroxypropylcellulose) (HPC)
[4] = dose: 200.0 mg/kg/injection, schedule: Q04DX003 (ip), vehicle: Klucel (hydroxypropylcellulose) (HPC)
[5] = dose: 400.0 mg/kg/injection, schedule: Q04DX003 (ip), vehicle: Klucel (hydroxypropylcellulose) (HPC)
[6] = dose: 50.0 mg/kg/injection, schedule: Q01DX009 (ip), vehicle: saline with Tween-80
[7] = dose: 100.0 mg/kg/injection, schedule: Q01DX009 (ip), vehicle: saline with Tween-80
[8] = dose: 200.0 mg/kg/injection, schedule: Q01DX009 (ip), vehicle: saline with Tween-80
[9] = dose: 50.0 mg/kg/injection, schedule: Q01DX005 (ip), vehicle: saline
[10] = dose: 100.0 mg/kg/injection, schedule: Q01DX005 (ip), vehicle: saline
[11] = dose: 200.0 mg/kg/injection, schedule: Q01DX005 (ip), vehicle: saline
[12] = dose: 50.0 mg/kg/injection, schedule: Q01DX005 (ip), vehicle: Klucel (hydroxypropylcellulose) (HPC)
[13] = dose: 60.0 mg/kg/injection, schedule: Q01DX005 (ip), vehicle: saline with Tween-80
[14] = dose: 120.0 mg/kg/injection, schedule: Q01DX005 (ip), vehicle: saline with Tween-80
[15] = dose: 240.0 mg/kg/injection, schedule: Q01DX005 (ip), vehicle: saline with Tween-80
[16] = dose: 100.0 mg/kg/injection, schedule: Q01DX005 (ip), vehicle: Klucel (hydroxypropylcellulose) (HPC)
[17] = dose: 200.0 mg/kg/injection, schedule: Q01DX005 (ip), vehicle: Klucel (hydroxypropylcellulose) (HPC)
[18] = dose: 100.0 mg/kg/injection, schedule: Q04DX003 (ip), vehicle: saline with Tween-80
[19] = dose: 200.0 mg/kg/injection, schedule: Q04DX003 (ip), vehicle: saline with Tween-80
[20] = dose: 60.0 mg/kg/injection, schedule: Q01DX005 (ip), vehicle: Klucel (hydroxypropylcellulose) (HPC)
[21] = dose: 120.0 mg/kg/injection, schedule: Q01DX005 (ip), vehicle: Klucel (hydroxypropylcellulose) (HPC)

Measured: T/C

Cc1cc(O)c2c(=O)c(=O)c2c1
inactive: [1] 101 % of control | [2] 103 % of control

CS/C(=C1/C(=O)N(c2ccccc2)N=C1c1ccc(C)cc1)N1CC1
inactive: [3] 91 % of control | [4] 94 % of control | [5] 94 % of control

CCN(CC)CC(C)(C)C(=O)/C=C/c1ccc(Cl)cc1
inactive: dose: 60.0 mg/kg/injection, schedule: Q01DX005 (ip), vehicle: saline 110 % of control | dose: 120.0 mg/kg/injection, schedule: Q01DX005 (ip), vehicle: saline 116 % of control

CC1(C)CC(OP(=O)(OCCN2CC2)OCCN2CC2)CC(C)(C)N1O
inactive: [6] 107 % of control | [7] 100 % of control | [8] 96 % of control

CN(C)C(P1(=O)OC(C)(C)C(C)(C)O1)P1(=O)OC(C)(C)C(C)(C)O1
inactive: [9] 104 % of control | [10] 99 % of control | [11] 98 % of control

BC(=O)O
inactive: dose: 25.0 mg/kg/injection, schedule: Q01DX005 (ip), vehicle: saline 97 % of control | [9] 93 % of control | [10] 93 % of control | [11] 106 % of control

CCC(Oc1c2ccoc2c(OC)c2oc(=O)cc(O)c12)C(=O)O (centres undefined)
inactive: [1] 108 % of control | [2] 95 % of control | dose: 200.0 mg/kg/injection, schedule: Q01DX005 (ip), vehicle: saline with Tween-80 100 % of control

C=C(C)C(=O)N/C(N)=N\C(N)=O
inactive: [9] 98 % of control | [10] 101 % of control | [11] 112 % of control

O=C1Nc2ccccc2S/C1=C\c1cccc(C(F)(F)F)c1
inactive: [6] 94 % of control | [7] 100 % of control | [8] 105 % of control

COCC(=O)[C@]1(O)Cc2c(O)c3c(c(O)c2[C@@H](OC2CC(N)C(O)C(C)O2)C1)C(=O)c1c(OC)cccc1C3=O (some centres undefined)
inactive: dose: 6.25 mg/kg/injection, schedule: Q04DX003 (ip), vehicle: water 100 % of control | dose: 12.5 mg/kg/injection, schedule: Q04DX003 (ip), vehicle: water 100 % of control | dose: 25.0 mg/kg/injection, schedule: Q04DX003 (ip), vehicle: water 109 % of control | dose: 100.0 mg/kg/injection, schedule: Q04DX003 (ip), vehicle: water 118 % of control | dose: 200.0 mg/kg/injection, schedule: Q04DX003 (ip), vehicle: water 87 % of control

COc1cc(C)c2c(c1OC)C(=O)OC2
inactive: [3] 98 % of control | [4] 97 % of control | [5] 98 % of control

C=CC(C)(CCC=C(C)C)ON(C)C (centres undefined)
inactive: dose: 100.0 mg/kg/injection, schedule: Q04DX002 (ip), vehicle: saline with Tween-80 100 % of control

Cn1cc(NC(=O)c2cc(NC(=O)c3cc(NC=O)cn3C)cn2C)cc1C(=O)O
inactive: dose: 12.5 mg/kg/injection, schedule: Q01DX005 (ip), vehicle: Klucel (hydroxypropylcellulose) (HPC) 100 % of control | dose: 25.0 mg/kg/injection, schedule: Q01DX005 (ip), vehicle: Klucel (hydroxypropylcellulose) (HPC) 100 % of control | [12] 107 % of control

CSc1c(C)c(C)nn1-c1ccccc1
inactive: [13] 104 % of control | [14] 111 % of control | [15] 104 % of control

N#C/C(N)=C(\C#N)N=c1c(-c2ccccc2)c1-c1ccccc1
inactive: [12] 102 % of control and 103 % of control | [16] 103 % of control and 113 % of control | [17] 109 % of control and 122 % of control

Cc1noc(NS(=O)(=O)c2ccc(N=c3c4ccccc4n(-c4ccccc4)c4ccccc34)cc2)c1C
inactive: [1] 97 % of control | [2] 100 % of control

CC1=CCCCN1C(=O)CC1C=CCS1(=O)=O (centres undefined)
inactive: dose: 25.0 mg/kg/injection, schedule: Q01DX005 (ip), vehicle: saline with Tween-80 100 % of control | [1] 103 % of control | [2] 103 % of control

CC(=O)O[C@H]1CC[C@]2(C=O)[C@H]3CC[C@]4(C)[C@@H](C5=CC(=O)OC5)CC[C@]4(O)[C@@H]3CC[C@]2(O)C1
inactive: dose: 12.5 mg/kg/injection, schedule: Q04DX002 (ip), vehicle: saline 94 % of control | dose: 25.0 mg/kg/injection, schedule: Q04DX002 (ip), vehicle: saline 94 % of control | dose: 50.0 mg/kg/injection, schedule: Q04DX002 (ip), vehicle: saline 100 % of control | dose: 100.0 mg/kg/injection, schedule: Q04DX002 (ip), vehicle: saline 91 % of control

CCCCCCCCCCC(=O)CC
inactive: [7] 104 % of control | [18] 100 % of control | [8] 104 % of control | [19] 100 % of control | dose: 400.0 mg/kg/injection, schedule: Q01DX009 (ip), vehicle: saline with Tween-80 109 % of control | dose: 400.0 mg/kg/injection, schedule: Q04DX003 (ip), vehicle: saline with Tween-80 100 % of control

CCCCN(CCCC)CCNc1ccc(C)c2sc3c(Cl)cccc3c(=O)c12
inactive: [12] 99 % of control | [16] 108 % of control | [17] 105 % of control

CN(C)/C=C1\C(C(C)(C)C)=CC(C(C)(C)C)=C1N=O
inactive: [20] 105 % of control | [21] 104 % of control

CNc1c[nH]c(=O)[nH]c1=O
inactive: [12] 108 % of control | [16] 105 % of control | [17] 96 % of control

CCOP(=O)(O)CP(=O)(O)OCC.CCOP(=O)(O)CP(=O)(O)OCC.[Cr]
inactive: dose: 50.0 mg/kg/injection, schedule: Q04DX003 (ip), vehicle: saline with Tween-80 102 % of control | [18] 98 % of control | [19] 99 % of control

CN(C)CCn1ncc(Sc2cc([N+](=O)[O-])ccc2N)c(Cl)c1=O
inactive: [13] 103 % of control | [14] 96 % of control | [15] 97 % of control

O=C(c1ccc(C(=O)N2CC2)cc1)N1CC1
inactive: dose: 10.0 mg/kg/injection, schedule: Q04DX003 (ip), vehicle: saline with Tween-80 118 % of control | dose: 20.0 mg/kg/injection, schedule: Q04DX003 (ip), vehicle: saline with Tween-80 109 % of control

O=C1NCC(c2ccccc2)N1 (centres undefined)
inactive: [6] 119 % of control | [7] 100 % of control | [8] 106 % of control

Cc1cc(Cl)c2c(c1N)C(=O)c1ccccc1C2=O
inactive: [12] 97 % of control | [16] 96 % of control | [17] 98 % of control

Nc1nc(Cc2ccccc2)cc(-c2cc(Cc3ccccc3)nc(N)n2)n1
inactive: [20] 90 % of control | [21] 95 % of control | dose: 240.0 mg/kg/injection, schedule: Q01DX005 (ip), vehicle: Klucel (hydroxypropylcellulose) (HPC) 97 % of control

COc1ccc(OC)c(CC(C(C)=O)C(C)=O)c1
inactive: dose: 25.0 mg/kg/injection, schedule: Q01DX009 (ip), vehicle: other 100 % of control | dose: 50.0 mg/kg/injection, schedule: Q01DX009 (ip), vehicle: other 105 % of control | dose: 100.0 mg/kg/injection, schedule: Q01DX009 (ip), vehicle: other 106 % of control | dose: 200.0 mg/kg/injection, schedule: Q01DX009 (ip), vehicle: other 108 % of control | dose: 400.0 mg/kg/injection, schedule: Q01DX009 (ip), vehicle: other 116 % of control
